Experimental data: ChEMBL document CHEMBL1156522, “Lateral compartmentalization of T cell receptor versus CD45 by galectin-N-glycan binding and microfilaments coordinate basal and activation signaling” (J Biol Chem, 2007)
Active and inactive are the calls of the source. The calls are words filed in the database; no cut-off is given here.

Key:
J-RT3-T3-5 [1] = assay: Increase in CD4 galectin lattice partition to GM1-enriched microdomain TCRbeta deficient human J.RT3-T3.5 cells by densitometry; assay type: functional
J-RT3-T3-5 [2] = assay: Enhancement of Lck localization within GM1-enriched microdomain in TCRbeta deficient human J.RT3-T3.5 cells by Western blot; assay type: functional
J-RT3-T3-5 [3] = assay: Increase in TCR-CD3 galectin lattice partition to GM1-enriched microdomain TCRbeta deficient human J.RT3-T3.5 cells by densitometry; assay type: functional
[4] = target: T1, Tyrosine-protein kinase ZAP-70 (Homo sapiens) (UniProt P43403); assay: Induction of ZAP70 phosphorylation in human Jurkat T cells at 5 uM after 3 days by Western blot analysis; assay type: cell-based
T1 sequence (whole entry): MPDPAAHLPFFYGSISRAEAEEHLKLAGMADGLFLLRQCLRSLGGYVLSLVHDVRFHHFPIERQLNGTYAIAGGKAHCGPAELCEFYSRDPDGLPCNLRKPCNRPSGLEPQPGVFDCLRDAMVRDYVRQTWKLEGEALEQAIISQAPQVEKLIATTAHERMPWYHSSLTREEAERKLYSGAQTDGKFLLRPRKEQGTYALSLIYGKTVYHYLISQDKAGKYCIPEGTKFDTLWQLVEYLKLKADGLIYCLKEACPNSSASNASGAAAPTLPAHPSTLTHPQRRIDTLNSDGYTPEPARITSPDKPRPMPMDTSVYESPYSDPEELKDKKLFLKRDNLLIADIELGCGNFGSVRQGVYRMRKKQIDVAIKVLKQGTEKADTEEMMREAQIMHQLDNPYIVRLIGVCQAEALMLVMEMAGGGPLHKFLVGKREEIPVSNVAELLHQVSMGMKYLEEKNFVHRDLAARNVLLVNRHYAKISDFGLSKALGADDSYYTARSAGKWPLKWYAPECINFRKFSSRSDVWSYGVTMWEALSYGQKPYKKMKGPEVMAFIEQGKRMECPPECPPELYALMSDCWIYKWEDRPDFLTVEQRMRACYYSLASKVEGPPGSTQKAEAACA

Homo sapiens [5] = organism: Homo sapiens; assay: Enhancement of Lck localization within GM1-enriched microdomain in CD45 deficient human J45.01 cells by Western blot; assay type: functional
[6] = target: T2, Linker for activation of T-cells family member 1 (Homo sapiens) (UniProt O43561); assay: Increase in LAT phosphorylation in anti-CD3-coated microbeads-stimulated CD45 deficient human J45.01 cells after 3 days
T2 sequence (whole entry): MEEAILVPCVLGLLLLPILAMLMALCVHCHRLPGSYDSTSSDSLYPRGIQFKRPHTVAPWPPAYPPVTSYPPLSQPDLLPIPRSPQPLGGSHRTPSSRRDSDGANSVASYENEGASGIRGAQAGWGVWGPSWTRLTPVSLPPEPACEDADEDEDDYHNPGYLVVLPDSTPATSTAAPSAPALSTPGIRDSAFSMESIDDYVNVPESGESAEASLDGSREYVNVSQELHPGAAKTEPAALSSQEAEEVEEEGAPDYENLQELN

[7] = target: T1, Tyrosine-protein kinase ZAP-70 (Homo sapiens); assay: Increase in Zap70 phosphorylation in anti-CD3-coated microbeads-stimulated CD45 deficient human J45.01 cells after 3 days
Jurkat [8] = assay: Induction of Nck protein binding to TCR complex in human Jurkat T cells by immunoprecipitation; assay type: cell-based
Jurkat [9] = assay: Enhancement of Lck localization within GM1-enriched microdomain in human Jurkat T cells by Western blot; assay type: functional, cell-based
Jurkat [10] = assay: Enhancement of Lck localization within GM1-enriched microdomain in CD4 deficient human Jurkat D1. 1 cells by Western blot; assay type: functional, cell-based
T-cell [11] = assay: Increase T cell receptor co-localization to GM1-enriched microdomain in C57BL/6 mouse T cells pretreated for 20 mins; assay type: functional, cell-based
Jurkat [12] = assay: Increase in CD45 galectin lattice partition to GM1-enriched microdomain in human Jurkat T cells by densitometry; assay type: functional, cell-based
Jurkat [13] = assay: Reduction of CD4 surface expression in Lck deficient human Jurkat T cells by flow cytometry; assay type: functional, cell-based
[14] = target: T3, Tyrosine-protein kinase Lck (Homo sapiens, UniProt P06239); assay: Induction of Lck Tyr394 phosphorylation in human Jurkat T cells at 5 uM after 3 days by Western blot analysis; assay type: cell-based
Target sequence in this assay (P06239 2-509 limits assumed): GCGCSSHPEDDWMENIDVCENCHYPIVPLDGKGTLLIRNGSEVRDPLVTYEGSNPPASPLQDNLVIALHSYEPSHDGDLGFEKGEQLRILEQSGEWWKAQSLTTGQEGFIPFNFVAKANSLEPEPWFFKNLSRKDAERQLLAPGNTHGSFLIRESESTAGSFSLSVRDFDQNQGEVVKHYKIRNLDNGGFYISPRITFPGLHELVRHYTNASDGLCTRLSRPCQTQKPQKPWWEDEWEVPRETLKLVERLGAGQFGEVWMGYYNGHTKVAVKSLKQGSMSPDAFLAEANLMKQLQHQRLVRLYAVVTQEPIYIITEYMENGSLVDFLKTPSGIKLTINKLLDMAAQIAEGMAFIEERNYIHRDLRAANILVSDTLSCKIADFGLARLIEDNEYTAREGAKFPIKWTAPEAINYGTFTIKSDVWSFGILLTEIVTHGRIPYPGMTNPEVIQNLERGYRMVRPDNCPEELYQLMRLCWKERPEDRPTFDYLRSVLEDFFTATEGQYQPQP

[15] = target: T3, Tyrosine-protein kinase Lck; assay: Induction of Lck Tyr394 phosphorylation in TCRbeta deficient human Jurkat T J.RT3-T3.5 cells at 5 uM after 3 days by Western blot analysis; assay type: cell-based
Target sequence in this assay (P06239 2-509 limits assumed): as above

T-cell [16] = assay: Increase CD4 co-localization to GM1-enriched microdomain in C57BL/6 mouse T cells pretreated for 20 mins; assay type: functional, cell-based
Jurkat [17] = assay: Increase in TCR-CD3 galectin lattice partition to GM1-enriched microdomain in CD4 deficient human Jurkat D1. 1 cells by densitometry; assay type: functional, cell-based
Jurkat [18] = assay: Increase in CD45 galectin lattice partition to GM1-enriched microdomain in CD4 deficient human Jurkat D1. 1 cells by densitometry; assay type: functional, cell-based
[19] = target: T2, Linker for activation of T-cells family member 1 (Homo sapiens); assay: Induction of LAT phosphorylation in human Jurkat T cells at 5 uM after 3 days by Western blot analysis; assay type: cell-based
T-cell [20] = assay: Reduction of CD45 co-localization with GM1-enriched microdomain in resting C57BL/6 mouse T cells pretreated for 20 mins; assay type: functional, cell-based
Homo sapiens [21] = organism: Homo sapiens; assay: Increase in TCR-CD3 galectin lattice partition to GM1-enriched microdomain in CD45 deficient human J45.01 cells by densitometry; assay type: functional
[22] = target: T3, Tyrosine-protein kinase Lck; assay: Induction of Lck Tyr394 phosphorylation in CD4 deficient human Jurkat T D1.1 cells at 5 uM after 3 days by Western blot analysis; assay type: cell-based
Target sequence in this assay (P06239 2-509 limits assumed): as above

Jurkat [23] = assay: Increase in ZAP70 expression in GM1-enriched microdomain of human Jurkat T cells by Western blot; assay type: functional, cell-based
Homo sapiens [24] = organism: Homo sapiens; assay: Increase in ZAP70 expression in GM1-enriched microdomain of Lck defient human JCaM1.6 cells by Western blot; assay type: functional
Homo sapiens [25] = organism: Homo sapiens; assay: Increase in CD45 galectin lattice partition to GM1-enriched microdomain in CD45 deficient human J45.01 cells by densitometry; assay type: functional
[26] = target: T3, Tyrosine-protein kinase Lck; assay: Induction of Lck Tyr394 phosphorylation in CD45 deficient human Jurkat T DJ45.01 cells at 5 uM after 3 days by Western blot analysis; assay type: cell-based
Target sequence in this assay (P06239 2-509 limits assumed): as above

Jurkat [27] = assay: Increase in CD4 galectin lattice partition to GM1-enriched microdomain in human Jurkat T cells by densitometry; assay type: functional, cell-based
Jurkat [28] = assay: Increase in TCR-CD3 galectin lattice partition to GM1-enriched microdomain in human Jurkat T cells by densitometry; assay type: functional, cell-based
Homo sapiens [29] = organism: Homo sapiens; assay: Increase in CD4 galectin lattice partition to GM1-enriched microdomain in CD45 deficient human J45.01 cells by densitometry; assay type: functional
J-RT3-T3-5 [30] = assay: Increase in CD45 galectin lattice partition to GM1-enriched microdomain TCRbeta deficient human J.RT3-T3.5 cells by densitometry; assay type: functional
Jurkat [31] = assay: Reduction of CD45 co-localization with GM1-enriched microdomain in human Jurkat T cells after 3 days; assay type: functional, cell-based
[32] = target: T3, Tyrosine-protein kinase Lck; assay: Inhibition of Lck phosphorylation
Target sequence in this assay (P06239 whole entry): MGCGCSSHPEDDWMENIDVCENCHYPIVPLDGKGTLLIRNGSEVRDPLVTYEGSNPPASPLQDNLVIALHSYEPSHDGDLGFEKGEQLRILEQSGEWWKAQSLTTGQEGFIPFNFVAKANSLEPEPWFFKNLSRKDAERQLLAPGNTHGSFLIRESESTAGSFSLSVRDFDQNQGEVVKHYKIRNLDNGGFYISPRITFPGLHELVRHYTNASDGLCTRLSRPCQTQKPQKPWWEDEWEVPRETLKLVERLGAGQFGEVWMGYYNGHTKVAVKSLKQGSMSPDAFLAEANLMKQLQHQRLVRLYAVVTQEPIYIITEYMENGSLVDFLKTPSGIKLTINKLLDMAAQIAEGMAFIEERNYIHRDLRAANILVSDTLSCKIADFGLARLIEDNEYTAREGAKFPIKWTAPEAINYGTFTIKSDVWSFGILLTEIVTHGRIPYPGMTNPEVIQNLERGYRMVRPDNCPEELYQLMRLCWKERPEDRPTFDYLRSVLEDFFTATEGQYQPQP

[33] = target: Tyrosine-protein phosphatase non-receptor type 13 (Homo sapiens, UniProt Q12923); assay: Inhibition of protein tyrosine phosphatase N13 phosphorylation
[34] = target: T4, Tyrosine-protein phosphatase non-receptor type 1 (Homo sapiens, UniProt P18031); assay: Inhibition of protein tyrosine phosphatase N1 phosphorylation
T4 sequence (P18031 whole entry): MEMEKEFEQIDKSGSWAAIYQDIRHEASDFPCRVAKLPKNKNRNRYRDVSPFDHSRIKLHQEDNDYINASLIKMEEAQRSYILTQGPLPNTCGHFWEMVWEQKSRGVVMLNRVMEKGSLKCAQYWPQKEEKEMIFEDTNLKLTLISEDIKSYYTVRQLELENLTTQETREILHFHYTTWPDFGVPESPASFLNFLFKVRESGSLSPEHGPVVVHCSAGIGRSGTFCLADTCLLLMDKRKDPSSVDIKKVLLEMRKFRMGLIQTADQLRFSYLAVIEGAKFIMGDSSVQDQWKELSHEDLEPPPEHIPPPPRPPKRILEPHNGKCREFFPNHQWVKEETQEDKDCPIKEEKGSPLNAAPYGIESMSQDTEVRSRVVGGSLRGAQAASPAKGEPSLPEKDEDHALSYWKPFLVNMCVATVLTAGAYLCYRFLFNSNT

[35] = target: Proto-oncogene tyrosine-protein kinase LCK (Mus musculus) (UniProt P06240); assay: Reduction of Lck Tyr394 phosphorylation in resting C57BL/6 mouse T cells at 20 uM by Western blot; assay type: cell-based; conditions: T-cell
[36] = target: Proto-oncogene tyrosine-protein kinase LCK (Mus musculus) (UniProt P06240); assay: Reversal of reduction of Lck Tyr394 phosphorylation in resting C57BL/6 mouse T cells at 20 uM by Western blot; assay type: cell-based; conditions: T-cell
T-cell [37] = assay: Effect on CD4 distribution within GM1-enriched microdomain in C57BL/6 mouse Mgat5 expressing T cells pretreated at 20 uM; assay type: functional, cell-based
T-cell [38] = assay: Effect on CD45 distribution within GM1-enriched microdomain in C57BL/6 mouse Mgat5 expressing T cells pretreated at 20 uM; assay type: functional, cell-based
T-cell [39] = assay: Effect on TCR distribution within GM1-enriched microdomain in C57BL/6 mouse Mgat5 expressing T cells pretreated at 20 uM; assay type: functional, cell-based

Chain of Proto-oncogene tyrosine-protein kinase LCK (Mus musculus) (P06240 2-509 limits assumed): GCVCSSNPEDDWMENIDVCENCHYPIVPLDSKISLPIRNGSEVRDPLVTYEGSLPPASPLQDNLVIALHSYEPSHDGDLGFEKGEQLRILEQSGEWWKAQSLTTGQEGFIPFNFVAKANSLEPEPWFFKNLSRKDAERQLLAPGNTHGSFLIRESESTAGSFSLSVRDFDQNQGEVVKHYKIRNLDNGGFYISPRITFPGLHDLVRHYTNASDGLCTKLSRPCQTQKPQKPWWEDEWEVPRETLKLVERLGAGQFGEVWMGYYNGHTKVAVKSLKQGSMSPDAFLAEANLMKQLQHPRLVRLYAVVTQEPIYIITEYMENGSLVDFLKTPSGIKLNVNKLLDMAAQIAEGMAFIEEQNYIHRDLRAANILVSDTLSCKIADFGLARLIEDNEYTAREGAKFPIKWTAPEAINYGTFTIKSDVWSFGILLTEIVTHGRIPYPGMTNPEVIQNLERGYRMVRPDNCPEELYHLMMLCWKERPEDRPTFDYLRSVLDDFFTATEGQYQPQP
Chain of Tyrosine-protein phosphatase non-receptor type 13 (Q12923 whole entry): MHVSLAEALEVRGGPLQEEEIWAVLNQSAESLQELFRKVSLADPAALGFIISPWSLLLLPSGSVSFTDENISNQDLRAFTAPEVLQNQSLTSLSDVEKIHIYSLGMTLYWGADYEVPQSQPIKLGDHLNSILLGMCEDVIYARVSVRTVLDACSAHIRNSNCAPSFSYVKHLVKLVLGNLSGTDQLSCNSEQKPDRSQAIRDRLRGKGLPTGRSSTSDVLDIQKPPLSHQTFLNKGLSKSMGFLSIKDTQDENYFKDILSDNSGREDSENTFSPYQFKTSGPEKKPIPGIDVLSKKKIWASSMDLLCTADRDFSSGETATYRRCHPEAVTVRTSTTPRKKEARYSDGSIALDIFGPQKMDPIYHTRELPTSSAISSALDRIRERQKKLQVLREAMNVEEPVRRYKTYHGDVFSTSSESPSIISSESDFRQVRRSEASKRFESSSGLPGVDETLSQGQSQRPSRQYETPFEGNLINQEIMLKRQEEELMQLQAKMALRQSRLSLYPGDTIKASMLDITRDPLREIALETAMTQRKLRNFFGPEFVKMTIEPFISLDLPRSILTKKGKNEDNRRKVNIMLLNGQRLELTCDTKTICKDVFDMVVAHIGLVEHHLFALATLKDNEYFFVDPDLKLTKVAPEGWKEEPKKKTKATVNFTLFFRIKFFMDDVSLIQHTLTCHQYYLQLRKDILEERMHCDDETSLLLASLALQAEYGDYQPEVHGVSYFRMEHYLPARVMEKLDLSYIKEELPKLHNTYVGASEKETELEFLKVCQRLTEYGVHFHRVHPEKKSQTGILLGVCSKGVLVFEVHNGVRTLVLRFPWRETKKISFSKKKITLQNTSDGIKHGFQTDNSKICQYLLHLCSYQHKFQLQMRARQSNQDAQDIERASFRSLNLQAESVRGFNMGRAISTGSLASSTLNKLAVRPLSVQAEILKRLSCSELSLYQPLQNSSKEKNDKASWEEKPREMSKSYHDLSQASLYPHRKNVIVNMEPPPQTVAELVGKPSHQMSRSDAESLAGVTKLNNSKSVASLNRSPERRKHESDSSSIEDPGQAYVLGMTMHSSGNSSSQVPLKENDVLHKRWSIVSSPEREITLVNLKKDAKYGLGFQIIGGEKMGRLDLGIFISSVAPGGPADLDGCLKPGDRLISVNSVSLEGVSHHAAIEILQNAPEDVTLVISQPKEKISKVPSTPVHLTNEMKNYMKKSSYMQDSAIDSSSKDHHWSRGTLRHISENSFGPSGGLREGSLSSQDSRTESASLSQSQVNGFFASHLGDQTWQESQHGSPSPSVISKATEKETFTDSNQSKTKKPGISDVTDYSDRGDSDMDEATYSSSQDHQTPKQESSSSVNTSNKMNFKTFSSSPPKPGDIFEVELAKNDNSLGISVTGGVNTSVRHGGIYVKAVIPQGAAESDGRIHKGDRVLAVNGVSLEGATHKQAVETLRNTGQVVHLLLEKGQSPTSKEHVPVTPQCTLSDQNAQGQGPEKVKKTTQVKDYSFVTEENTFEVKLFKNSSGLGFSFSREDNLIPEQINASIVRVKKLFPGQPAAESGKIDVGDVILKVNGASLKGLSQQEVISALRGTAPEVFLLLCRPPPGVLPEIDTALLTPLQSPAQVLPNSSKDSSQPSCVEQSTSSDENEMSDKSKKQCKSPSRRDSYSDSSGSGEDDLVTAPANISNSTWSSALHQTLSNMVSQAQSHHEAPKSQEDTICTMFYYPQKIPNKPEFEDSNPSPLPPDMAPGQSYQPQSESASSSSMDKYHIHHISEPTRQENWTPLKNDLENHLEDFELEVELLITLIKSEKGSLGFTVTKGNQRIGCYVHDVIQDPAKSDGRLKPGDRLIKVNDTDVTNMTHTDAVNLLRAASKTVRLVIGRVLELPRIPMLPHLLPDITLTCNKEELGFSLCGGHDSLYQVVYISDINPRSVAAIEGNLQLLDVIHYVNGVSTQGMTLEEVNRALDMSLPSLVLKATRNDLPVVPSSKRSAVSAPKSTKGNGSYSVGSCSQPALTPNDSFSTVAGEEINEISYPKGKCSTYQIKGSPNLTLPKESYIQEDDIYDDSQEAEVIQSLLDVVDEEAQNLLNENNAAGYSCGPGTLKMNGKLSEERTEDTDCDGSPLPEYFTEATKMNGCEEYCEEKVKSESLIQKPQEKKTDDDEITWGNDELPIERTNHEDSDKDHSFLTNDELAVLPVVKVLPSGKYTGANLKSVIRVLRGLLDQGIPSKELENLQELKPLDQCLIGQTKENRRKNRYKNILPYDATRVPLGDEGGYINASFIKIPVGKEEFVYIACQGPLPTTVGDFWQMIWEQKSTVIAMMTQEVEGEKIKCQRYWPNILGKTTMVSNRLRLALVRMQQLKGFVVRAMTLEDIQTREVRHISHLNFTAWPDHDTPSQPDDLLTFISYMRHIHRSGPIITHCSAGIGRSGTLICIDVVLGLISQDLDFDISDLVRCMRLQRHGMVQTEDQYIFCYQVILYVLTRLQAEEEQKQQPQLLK

O[C@H]1[C@H]2[C@H](O)CCCN2C[C@H]1O
Activity (J-RT3-T3-5 [1]): Active
Activity (J-RT3-T3-5 [2]): inactive
Activity (J-RT3-T3-5 [3]): Active
Activity [4]: Active
Activity (Homo sapiens [5]): Active
Activity [6]: inactive
Activity [7]: inactive
Activity (Jurkat [8]): Active
Activity (Jurkat [9]): Active
Activity (Jurkat [10]): Active
Activity (T-cell [11]): Active
Activity (Jurkat [12]): Active
Activity (Jurkat [13]): Active
Activity [14]: Active
Activity [15]: inactive
Activity (T-cell [16]): Active
Activity (Jurkat [17]): Active
Activity (Jurkat [18]): Active
Activity [19]: Active
Activity (T-cell [20]): Active
Activity (Homo sapiens [21]): Active
Activity [22]: inactive
Activity (Jurkat [23]): Active
Activity (Homo sapiens [24]): inactive
Activity (Homo sapiens [25]): Active
Activity [26]: inactive
Activity (Jurkat [27]): Active
Activity (Jurkat [28]): Active
Activity (Homo sapiens [29]): inactive
Activity (J-RT3-T3-5 [30]): Active

LACTOSE, ANHYDROUS
Activity (Jurkat [31]): Active
Activity (Jurkat [8]): Active

CC(C)(C)C(=O)Nc1ccc2c(c1)C(=O)C(=O)c1ccccc1-2
IC50 [32]: 3.8 µM
IC50 [33]: > 30 µM
IC50 [34]: > 30 µM

C/C1=C/C(=O)O[C@@H]2C[C@@H](CC[C@H](C)/C=C\C=C\CC1)O[C@@](O)([C@@H]1CSC(=O)N1)C2
Activity [35]: Active
Activity [36]: Active

CC(C)(C)n1nc(-c2ccc(Cl)cc2)c2c(N)ncnc21
Activity (T-cell [37]): inactive
Activity (T-cell [38]): inactive
Activity (T-cell [39]): inactive
